{"source": "paper PMC8746798", "about": "“Evaluation of 2-Thioxoimadazolidin-4-one Derivatives as Potent Anti-Cancer Agents through Apoptosis Induction and Antioxidant Activation: In Vitro and In Vivo Approaches” (Molecules, 2021)", "key": {"HepG2 liver cancer cells": {"tested_on": "HepG2 liver cancer cells", "assay": "MTT assay for cytotoxic screening, HepG2", "assay_type": "cell-based, human", "conditions": "Homo sapiens, HepG2, 48 h, mean ± SE, n = 3", "protocol": "The in vitro anti-cancer activity was assessed using the MTT assay. […] Staurosporine and 5-FU were used as reference drugs. HepG2 cells (1 × 10^4 cells/well, 96-well plate) were maintained in DMEM media supplemented with 2mML-glutamine (Lonza, Verviers, Belgium) and 10% FBS (Sigma, St. Louis, MO, USA), 1% Penicillin/Streptomycin (Lonza, Verviers, Belgium) according to the routine culture work. Cultures were incubated for 48 h with serial dilutions (0.01, 0.1, 1, 10, 100 µM) of the tested compounds. Finally, cell viability was determined by measuring the absorbance λ570 nm according to the following formula: % of cell viability = (A sapmple/A control) ×100, then IC50 calculation was calculated using GraphPad Prism 7 software."}, "HepG2 cells": {"tested_on": "HepG2 cells", "assay": "DNA content flow cytometry cell cycle analysis", "assay_type": "cell-based, human", "conditions": "HepG2, IC50 = 0.017 μM, 48 h; control 12.26%", "excerpt": "Apoptotic cells were quantified using double staining with annexin V and PI on flow cytometry. […] The detailed methodology of flow cytometric analysis (annexin V/PI differential apoptosis/necrosis, DNA content–flow cytometry aided cell cycle) is provided in the Supplementary Materials.\nSupplementary materials for detailed methodology\nEvaluation of 2-thioxoimadazolidin-4-one Derivatives as Potent\nAnti-cancer Agents Through Apoptosis Induction and Antioxi-dant Activation: In vitro and In vivo Approaches\nMohamed S. Nafie 1,*, Ahmed I. Khodair 2,*, Hebat Allah Y. Hassan 3, Noha M. Abd El-Fadeal 4, Hanin A. Bogari 5 , Sameh S. Elhady 6 and Safwat A. Ahmed 3,7,* […]\nApoptosis and necrosis cell populations are determined using Annexin V-FITC apop-tosis detection kit (Abcam Inc., Cambridge Science Park, Cambridge, UK) coupled with 2 fluorescent channels flowcytometry. […]\nThen, cells are incubated in dark with 0.5 ml of Annexin V-FITC/PI solution for 30 min in dark at room temperature according to manufacturer protocol. After staining, cells are injected via ACEA Novocyte™ flowcytometer (ACEA Biosciences Inc., San Diego, CA, USA) and analyzed for FITC and PI fluorescent signals using FL1 and FL2 signal detector, respectively (λex/em 488/530 nm for FITC and λex/em 535/617 nm for PI). […]"}}}
{"smiles": "O=C1NC(=S)N(c2ccc(O)cc2)/C1=C/c1cccs1", "note": "[Compound 4, (E)-1-(4-Hydroxyphenyl)-5-(thiophen-2-ylmethylene)-2-thioxoimidazolidin-4-one]", "values": [{"measurement": "IC50", "setting": "HepG2 liver cancer cells", "result": "17 ± 4", "unit": "nM"}, {"measurement": "% cells in G2/M phase", "setting": "HepG2 cells", "result": 21.15, "unit": "%"}]}
